Source: patent US7897582B2, “Oligonucleotide compositions and methods for the modulation of the expression of B7 protein” (Isis Pharmaceuticals, Inc., priority 2003, dated 2011)
Strand notation (5' to 3'): a small letter for the sugar, then the base; units joined by * are phosphorothioate-linked, units joined directly phosphodiester-linked; [ ] holds rarer units or linkages, { } end groups; capitals alone tell only the bases. e = 2'-O-(2-methoxyethyl) (MOE); [5mC] = 5-methylcytosine; d = 2'-deoxy (DNA)

Tests used:
[1] = tested on: DBA/1LacJ mice with collagen-induced arthritis; experiment: Collagen-induced arthritis (CIA) murine model; assay type: in vivo, mouse; details: CIA in DBA/1LacJ mice; for % Incidence: 10 mg/kg intraperitoneally daily from day -3, control 70%; for Peak day (day from onset of maximum swelling for each joint measure) / Severity (total clinical score divided by the total number of mice in the group): 10 mg/kg intraperitoneally daily; for Peak day (day from onset of maximum swelling for each joint measure): control 6.7 ± 2.9; for Severity (total clinical score divided by the total number of mice in the group): limbs graded 0-4, control 3.2 ± 1.1
Experimental: Collagen-induced arthritis (CIA) was used as a murine model for arthritis (Mussener, A., et al., Clin. Exp. Immunol., 1997, 107, 485-493). Female DBA/1LacJ mice (Jackson Laboratories, Bar Harbor, Me.) between the ages of 6 and 8 weeks were used to assess the activity of B7-1 antisense oligonucleotides.
On day 0, the mice were immunized at the base of the tail with 100 μg of bovine type II collagen which is emulsified in Complete Freund's Adjuvant (CFA). On day 7, a second booster dose of collagen was administered by the same route. On day 14, the mice were injected subcutaneously with 100 μg of LPS. Oligonucleotide was administered intraperitoneally daily (10 mg/kg bolus) starting on day −3 (three days before day 0) and continuing for the duration of the study. Oligonucleotide 17456 (SEQ ID NO. 173) is a fully phosphorothioated analog of 18122.
Weights were recorded weekly. Mice were inspected daily for the onset of CIA. Paw widths are rear ankle widths of affected and unaffected joints were measured three times a week using a constant tension caliper. Limbs were clinically evaluated and graded on a scale from 0-4 (with 4 being the highest).

[2] = tested on: murine B7-1; experiment: Murine B7-1 cell surface expression in transfected COS-7 cells by flow cytometry; assay type: cell-based; details: mouse B7-1 cell surface expression, basal = 100%
Text: (§1) Oligonucleotides (see Table 4) capable of inhibiting expression of murine B7-2 transiently expressed in COS-7 cells were identified in the following manner. A series of phosphorothioate oligonucleotides complementary to murine B7-2 (mB7-2) cDNA were screened for their ability to reduce mB7-2 levels (measured by flow cytometry as in Example 2, except that a conjugated anti-mB7-2 antibody (i.e., anti-mCD86-PE, PharMingen, San Diego, Calif.) in COS-7 cells transfected with an mB7-2 cDNA clone. Anti-mB7-2 antibody may also be obtained from the hybridoma deposited at the ATCC under accession No. HB-253. Oligonucleotides (see Table 2) capable of modulating murine B7-1 expression are isolated in like fashion, except that a conjugated anti-mB7-1 antibody is used in conjunction with COS-7 cells transfected with an mB7-1 cDNA clone.
(§2) B7 antisense oligonucleotides were tested for their effect on cell surface expression of both B7-1 and B7-2. Cell surface expression was measured as described in Example 1. Experiments were done for both human B7 and mouse B7.

[3] = tested on: Mouse B7-2 mRNA; experiment: Mouse B7-2 mRNA expression, screened as in Example 4; assay type: cell-based; parameters: % mRNA INHIBITION: concentration or dose not given beside the values; details: for % mRNA INHIBITION: screened as in Example 4; for % mRNA EXPRESSION: screened as in Example 4, basal = 100.0%
Experimental: For ribonuclease protection assays, cells were harvested 18 hours after completion of oligonucleotide treatment using a Totally RNA™ kit (Ambion, Austin, Tex.). The probes for the assay were generated from plasmids pcB7-2 (linearized by digestion with Bgl II) and pTRI-b-actin (Ambion Inc., Austin, Tex.). In vitro transcription of the linearized plasmid from the SP6 promoter was performed in the presence of α-^32P-UTP (800 Ci/mmole) yielding an antisense RNA complementary to the 3′ end of B7-2 (position 1044-1391). The probe was gel-purified after treatment with DNase I to remove DNA template. Ribonuclease protection assays were carried out using an RPA II™ kit (Ambion) according to the manufacturer's directions. Total RNA (5 μg) was hybridized overnight, at 42° C., with 10^5 cpm of the B7-2 probe or a control beta-actin probe. The hybridization reaction was then treated, at 37° C. for 30 minutes, with 0.4 units of RNase A and 2 units of RNase T1. Protected RNA was precipitated, resuspended in 10 μL of gel loading buffer and electrophoresed on a 6% acrylamide gel with 50% w/v urea at 20 W. The gel was then exposed and the lanes quantitated using a PhosphorImager (Molecular Dynamics, Sunnyvale, Calif.) essentially according to the manufacturer's instructions.
Oligonucleotides were screened as described in Example 4.

[4] = tested on: murine B7-2 (mB7-2); experiment: Murine B7-2 cell surface expression in transfected COS-7 cells by flow cytometry; assay type: cell-based, mouse; details: mouse B7-2 cell surface expression
Text: as §1, §2

[5] = tested on: Mouse B7-1 mRNA; experiment: Mouse B7-1 mRNA expression, screened as in Example 4; assay type: cell-based; parameters: % mRNA INHIBITION: concentration or dose not given beside the values; details: Table 10
[6] = tested on: BALB/c mice with heart allograft; experiment: Murine heart allograft rejection model; assay type: in vivo, mouse
Experimental: A murine model for evaluating compounds for their ability to inhibit heart allograft rejection has been previously described (Stepkowski et al., J. Immunol., 1994, 153, 5336). This model was used to evaluate the immunosuppressive capacity of antisense oligonucleotides to B7 proteins alone or in combination with antisense oligonucleotides to intercellular adhesion molecule-1 (ICAM-1).
Heart allograft rejection studies and oligonucleotide treatments of BALB/c mice were performed essentially as previously described (Stepkowski et al., J. Immunol., 1994, 153, 5336). Antisense oligonucleotides used included ISIS 11696, ISIS 3082 (targeted to ICAM-1) and ISIS 1082 (a control oligonucleotide targeted to the herpes virus UL-13 gene sequence). Dosages used were 1, 2, 2.5, 5 or 10 mg/kg of individual oligonucleotide (as indicated below); when combinations of oligonucleotides were administered, each oligonucleotide was given at a dosage of 1, 5 or 10 mg/kg (total oligonucleotide dosages of 2, 10 and 20 mg/kg, respectively). The survival times of the transplanted hearts and their hosts were monitored and recorded.

Substance | % mRNA EXPRESSION [5] [%] | % mRNA INHIBITION [5] [%] | other results
11696 (antisense dG*dG*dA*dT*dT*dG*dC*dC*dA*dA*dG*dC*dC*dC*dA*dT*dG*dG*dT*dG) [compound 11696] | – | – | % Incidence [1]: 37.5%; Peak day (day from onset of maximum swelling for each joint measure) [1]: 11.6 ± 4.5 days; Severity (total clinical score divided by the total number of mice in the group) [1]: 3.4 ± 1.8
18089 (antisense eG*eT*e[5mC]*eA*eA*dA*dG*d[5mC]*dT*d[5mC]*dG*dT*dG*d[5mC]*dG*eG*e[5mC]*e[5mC]*e[5mC]*eA) [compound 18089] | – | – | % Incidence [1]: 44.4%; Peak day (day from onset of maximum swelling for each joint measure) [1]: 6.8 ± 2.2 days; Severity (total clinical score divided by the total number of mice in the group) [1]: 2.3 ± 1.3; % B7-1 EXPRESSION [2]: 85%; % mRNA INHIBITION [3]: 79.1%; % mRNA EXPRESSION [3]: 20.9%; % B7-2 EXPRESSION [4]: 36%
18097 (antisense eT*eG*e[5mC]*e[5mC]*eA*dA*dG*d[5mC]*d[5mC]*d[5mC]*dA*dT*dG*dG*dT*eG*e[5mC]*eA*eT*e[5mC]) [compound 18097] | – | – | % B7-1 EXPRESSION [2]: 87%; % mRNA INHIBITION [3]: 75.5%; % mRNA EXPRESSION [3]: 24.5%; % B7-2 EXPRESSION [4]: 28%
18105 (antisense eT*eG*eG*e[5mC]*eA*dT*d[5mC]*d[5mC]*dA*d[5mC]*d[5mC]*d[5mC]*dG*dG*d[5mC]*eA*eG*eA*eT*eG) [compound 18105] | 32.0 | 68.0 | –
18106 (antisense TCGAGAAACAGAGATGTAGA; listed as DNA, chemistry not fully specified) [compound 18106] | 51.0 | 49.0 | –
18107 (antisense eT*eG*eG*eA*eG*d[5mC]*dT*dT*dA*dG*dG*d[5mC]*dA*d[5mC]*d[5mC]*eT*e[5mC]*e[5mC]*eT*eA) [compound 18107] | 58.0 | 42.0 | –
18108 (antisense eT*eG*eG*eG*eG*dA*dA*dA*dG*d[5mC]*d[5mC]*dA*dG*dG*dA*eA*eT*e[5mC]*eT*eA) [compound 18108] | 82.0 | 18.0 | –
18109 (antisense e[5mC]*eA*eG*e[5mC]*eA*d[5mC]*dA*dA*dA*dG*dA*dG*dA*dA*dG*eA*eA*eT*eG*eA) [compound 18109] | 45.5 | 54.5 | –
18111 (antisense eA*eA*eG*eT*e[5mC]*d[5mC]*dG*dG*dT*dT*d[5mC]*dT*dT*dA*dT*eA*e[5mC]*eT*e[5mC]*eG) [compound 18111] | 38.0 | 62.0 | –
18112 (antisense eG*e[5mC]*eA*eG*eG*dT*dA*dA*dT*d[5mC]*d[5mC]*dT*dT*dT*dT*eA*eG*eT*eG*eT) [compound 18112] | 42.0 | 58.0 | –
18113 (antisense eG*eT*eG*eA*eA*dG*dT*d[5mC]*d[5mC]*dT*d[5mC]*dT*dG*dA*d[5mC]*eA*e[5mC]*eG*eT*eG) [compound 18113] | 24.6 | 75.4 | % B7-1 EXPRESSION [2]: 25%; % B7-2 EXPRESSION [4]: 91%
18114 (antisense e[5mC]*eG*eA*eA*eT*d[5mC]*d[5mC]*dT*dG*d[5mC]*d[5mC]*d[5mC]*d[5mC]*dA*dA*eA*eG*eA*eG*e[5mC]) [compound 18114] | 25.6 | 74.4 | –
18115 (antisense eA*e[5mC]*eT*eG*e[5mC]*dG*d[5mC]*d[5mC]*dG*dA*dA*dT*d[5mC]*d[5mC]*dT*eG*e[5mC]*e[5mC]*e[5mC]*e[5mC]) [compound 18115] | 33.5 | 66.5 | –
18116 (antisense eT*eT*eG*eA*eT*dG*dA*dT*dG*dA*d[5mC]*dA*dA*d[5mC]*dG*eA*eT*eG*eA*e[5mC]) [compound 18116] | 65.6 | 34.4 | –
18117 (antisense e[5mC]*eT*eG*eT*eT*dG*dT*dT*dT*dG*dT*dT*dT*d[5mC]*dT*e[5mC]*eT*eG*e[5mC]*eT) [compound 18117] | 46.7 | 53.3 | –
18118 (antisense eT*eG*eT*eT*e[5mC]*dA*dG*d[5mC]*dT*dA*dA*dT*dG*d[5mC]*dT*eT*e[5mC]*eT*eT*e[5mC]) [compound 18118] | 31.7 | 68.3 | –
18119 (antisense eG*eT*eT*eA*eA*d[5mC]*dT*d[5mC]*dT*dA*dT*d[5mC]*dT*dT*dG*eT*eG*eT*e[5mC]*eA) [compound 18119] | 24.0 | 76.0 | % B7-1 EXPRESSION [2]: 27%; % B7-2 EXPRESSION [4]: 98%
18120 (antisense eT*e[5mC]*e[5mC]*eA*e[5mC]*dT*dT*d[5mC]*dA*dG*dT*d[5mC]*dA*dT*d[5mC]*eA*eA*eG*e[5mC]*eA) [compound 18120] | 26.7 | 73.3 | –
18121 (antisense eT*eG*e[5mC]*eT*e[5mC]*dA*dA*dT*dA*d[5mC]*dT*d[5mC]*dT*d[5mC]*dT*eT*eT*eT*eT*eA) [compound 18121] | 114.0 | – | –
18122 (antisense eA*eG*eG*e[5mC]*e[5mC]*d[5mC]*dA*dG*d[5mC]*dA*dA*dA*d[5mC]*dT*dT*eG*e[5mC]*e[5mC]*e[5mC]*eG) [compound 18122] | 42.0 | 58.0 | –
18123 (antisense eA*eA*e[5mC]*eG*eG*d[5mC]*dA*dA*dG*dG*d[5mC]*dA*dG*d[5mC]*dA*eA*eT*eA*e[5mC]*e[5mC]) [compound 18123] | 42.0 | 58.0 | –
ISIS 1082: control oligonucleotide targeted to the herpes virus UL-13 gene sequence; SEQ ID NO: 102 (125) (antisense GCCGAGGTCCATGTCGTACGC; listed as DNA, chemistry not given here) | – | – | mean survival time ([6]; 5 mg/kg/day for 7 days): 7.1 ± 0.7 days; mean survival time ([6]; 10 mg/kg/day for 7 days): 7.0 ± 0.8 days
ISIS 3082: ICAM-1 oligonucleotide, previously described (Stepkowski et al.); SEQ ID NO: 101 (antisense TGCATCCCCCAGGCCACCAT; listed as DNA, chemistry not given here) | – | – | mean survival time ([6]; 1 mg/kg/day for 7 days): 11.0 ± 0.0 days; mean survival time ([6]; 2.5 mg/kg/day for 7 days): 12.0 ± 2.7 days; mean survival time ([6]; 5 mg/kg/day for 7 days): 14.1 ± 2.7 days; mean survival time ([6]; 10 mg/kg/day for 7 days): 15.3 ± 5.8 days
